# Earlier results as cited in patent publication US20250018217A1, “PH[…] THERAPY APPARATUS AND METHODS FOR TREATING ORAL DISEASE” (Biolux Group SA, priority 2022, published 2025).
# Entries after “also recorded” stand apart in the source; their conditions may differ. Where two headings read alike, the source gives them in different places.
# What was measured:
# [1] = daily oral supplement of 2,000 IU to 6,000 IU in adults, within 3 months
molecule,measurement,setting,value
COc1cc(/C=C/C(=O)CC(=O)/C=C/c2ccc(O)c(OC)c2)ccc1O [Curcumin],Antimicrobial activity (in solution),"microbial species; 0.75 to 5 g/l, excitation wavelength 547 nm",[50]S. mutans; also recorded: [51]L. acidophilus
Cc1cc(=[N+](C)C)cc2sc3cc(N(C)C)cc(C)c3nc1-2.[Cl-] [Dimethyl methylene blue],Antimicrobial activity (in solution),"microbial species; 800 um, excitation wavelength 635-652",[12]A. baumannii
O=C1OC2(c3ccccc31)c1cc(I)c(O)c(I)c1Oc1c2cc(I)c(O)c1I [Erythrosine],Antimicrobial activity (in solution),microbial species; excitation wavelength 500-550 nm,[64]S. mutans
CN(C)c1ccc2nc3ccc(=[N+](C)C)cc-3sc2c1 [Methylene blue],Antimicrobial activity (in solution),"microbial species; 25 ug/ml, excitation wavelength 632 nm",[8] Various
CCNc1cc2[s+]c3cc(NCC)c(C)cc3nc2cc1C.[Cl-] [New Methylene blue],Antimicrobial activity (in solution),"microbial species; 00 uM, excitation wavelength 635-652",[17]A. baumannii
O=C([O-])c1c(Cl)c(Cl)c(Cl)c(Cl)c1-c1c2cc(I)c(=O)c(I)c-2oc2c(I)c([O-])c(I)cc12.[Na+].[Na+] [Rose Bengal],Antimicrobial activity (in solution),"microbial species; 10 um, excitation wavelength 532 nm",[26]E. faecalis
Cc1cc2nc3ccc(N(C)C)cc3[s+]c2cc1N.[Cl-] [Toluidine blue O],Antimicrobial activity (in solution),"microbial species; 100 mg/l, excitation wavelength 410 nm-660 nm",[21]E. coli
Phthalocynine,Antimicrobial activity (in solution),microbial species; excitation wavelength 670 nm,[74]A. hidrophila
Sulfonic porphyrins (TPPS),Antimicrobial activity (in solution),microbial species; no concentration or wavelength printed (TPPS),[42]S. aureus
vitamin D,Blood levels of vitamin D,[1],40 ng/mL
